Source: the NIST ThermoML archive (doi:10.1021/je100952p)
Numbers after ± are expanded uncertainties.

Assay: activity coefficient (dimensionless); of the first substance listed, at infinite dilution; xn = mol fraction of the nth substance listed
Conditions: 101 kPa, Liquid, Chromatography, x1 = 0

| SMILES | activity coefficient (303.15 K) | activity coefficient (313.15 K) | activity coefficient (323.15 K) | activity coefficient (333.15 K) | activity coefficient (343.15 K) | activity coefficient (353.15 K) | activity coefficient (363.15 K) |
| --- | --- | --- | --- | --- | --- | --- | --- |
| c1ccccc1 [benzene] + CCCCCCCCCCn1cc[n+](C)c1.F[B-](F)(F)F | 1.15 ± 0.07 | 1.14 ± 0.07 | 1.11 ± 0.07 | 1.1 ± 0.1 | 1.08 ± 0.06 | 1.07 ± 0.06 | 1.06 ± 0.06 |
| Cc1ccccc1 [toluene] + CCCCCCCCCCn1cc[n+](C)c1.F[B-](F)(F)F | 1.52 ± 0.09 | 1.49 ± 0.09 | 1.47 ± 0.09 | 1.43 ± 0.09 | 1.41 ± 0.09 | 1.4 ± 0.1 | 1.35 ± 0.08 |
| CCCCCC [hexane] + CCCCCCCCCCn1cc[n+](C)c1.F[B-](F)(F)F | 7.36 ± 0.48 | 7.16 ± 0.46 | 7.03 ± 0.45 | 6.94 ± 0.45 | 6.86 ± 0.44 | 6.81 ± 0.44 | 6.68 ± 0.43 |
| C1CCCCC1 [cyclohexane] + CCCCCCCCCCn1cc[n+](C)c1.F[B-](F)(F)F | 4.42 ± 0.29 | 4.43 ± 0.29 | 4.43 ± 0.29 | 4.47 ± 0.29 | 4.5 ± 0.3 | 4.56 ± 0.29 | 4.69 ± 0.3 |
| Cc1ccc(C)cc1 [1,4-dimethylbenzene] + CCCCCCCCCCn1cc[n+](C)c1.F[B-](F)(F)F | 1.99 ± 0.13 | 1.96 ± 0.13 | 1.93 ± 0.12 | 1.92 ± 0.12 | 1.91 ± 0.12 | 1.88 ± 0.12 | 1.86 ± 0.12 |
| Cc1cccc(C)c1 [1,3-dimethylbenzene] + CCCCCCCCCCn1cc[n+](C)c1.F[B-](F)(F)F | 2.03 ± 0.13 | 2.02 ± 0.13 | 1.97 ± 0.13 | 1.95 ± 0.13 | 1.94 ± 0.12 | 1.92 ± 0.12 | 1.91 ± 0.12 |
| CCc1ccccc1 [ethylbenzene] + CCCCCCCCCCn1cc[n+](C)c1.F[B-](F)(F)F |  | 2.02 ± 0.13 | 2.01 ± 0.13 | 1.99 ± 0.13 | 1.98 ± 0.13 | 1.97 ± 0.13 | 1.96 ± 0.13 |
| C=Cc1ccccc1 [styrene] + CCCCCCCCCCn1cc[n+](C)c1.F[B-](F)(F)F |  | 1.25 ± 0.08 | 1.22 ± 0.07 | 1.2 ± 0.1 | 1.18 ± 0.07 | 1.16 ± 0.07 | 1.14 ± 0.07 |
| Cc1ccccc1C [1,2-dimethylbenzene] + CCCCCCCCCCn1cc[n+](C)c1.F[B-](F)(F)F | 1.79 ± 0.11 | 1.77 ± 0.11 | 1.75 ± 0.11 | 1.73 ± 0.11 | 1.72 ± 0.11 | 1.72 ± 0.11 | 1.71 ± 0.11 |

Other lines, results leading:

| activity coefficient (303.15 K) | activity coefficient (313.15 K) | activity coefficient (323.15 K) | activity coefficient (333.15 K) | activity coefficient (343.15 K) | activity coefficient (353.15 K) | activity coefficient (363.15 K) | SMILES |
| --- | --- | --- | --- | --- | --- | --- | --- |
| 10.7 ± 0.69 | 10.7 ± 0.69 | 10.7 ± 0.69 | 10.7 ± 0.69 | 10.7 ± 0.69 | 10.7 ± 0.69 | 10.6 ± 0.69 | CCCCCCCCC [nonane] + CCCCCCCCCCn1cc[n+](C)c1.F[B-](F)(F)F |
| 3.03 ± 0.2 | 3.01 ± 0.19 | 2.99 ± 0.19 | 2.97 ± 0.19 | 2.96 ± 0.19 | 2.96 ± 0.19 | 2.96 ± 0.19 | C1=CCCCC1 [cyclohexene] + CCCCCCCCCCn1cc[n+](C)c1.F[B-](F)(F)F |
| 8.01 ± 0.52 | 7.97 ± 0.52 | 7.95 ± 0.51 | 7.93 ± 0.51 | 7.91 ± 0.51 | 7.89 ± 0.51 | 7.88 ± 0.51 | CCCCCCC [heptane] + CCCCCCCCCCn1cc[n+](C)c1.F[B-](F)(F)F |
| 9.13 ± 0.59 | 9.11 ± 0.59 | 9.1 ± 0.6 | 9.08 ± 0.59 | 9.07 ± 0.59 | 9.07 ± 0.59 | 9.06 ± 0.59 | CC(C)CC(C)(C)C [2,2,4-trimethylpentane] + CCCCCCCCCCn1cc[n+](C)c1.F[B-](F)(F)F |
| 9.3 ± 0.6 | 9.26 ± 0.6 | 9.21 ± 0.6 | 9.2 ± 0.6 | 9.17 ± 0.59 | 9.16 ± 0.59 | 9.13 ± 0.59 | CCCCCCCC [octane] + CCCCCCCCCCn1cc[n+](C)c1.F[B-](F)(F)F |
| 6.88 ± 0.45 | 6.72 ± 0.43 | 6.53 ± 0.42 | 6.29 ± 0.41 | 6.12 ± 0.4 | 6.01 ± 0.39 | 5.93 ± 0.38 | CCCCC [pentane] + CCCCCCCCCCn1cc[n+](C)c1.F[B-](F)(F)F |
| 5.19 ± 0.34 | 5.23 ± 0.34 | 5.24 ± 0.34 | 5.28 ± 0.34 | 5.32 ± 0.34 | 5.36 ± 0.35 | 5.39 ± 0.35 | CC1CCCCC1 [methylcyclohexane] + CCCCCCCCCCn1cc[n+](C)c1.F[B-](F)(F)F |
